Source: patent US7781464B2, “Heterocyclic diphenyl ethers” (Bexel Pharmaceuticals, Inc., priority 2003, dated 2010)

Legend:
[1] = test system: 3T3-L1 adipocytes; experiment: Basal glucose uptake in 3T3-L1 adipocytes (14C-2-deoxyglucose); assay type: cell-based; details: 1.0 μM, 72 hours treatment, 10 minutes uptake without insulin, vs 0.1% DMSO
Experimental: Referring to FIG. 1, 3T3-L1 fibroblasts were differentiated to adipocytes by a cocktail containing insulin, dexamethasone and IBMX for four days. Fully differentiated adipocytes were treated with the compounds (1.0 μM concentrations) or 0.1% DMSO for 72 hours and then glucose uptake was carried out for 10 minutes without any addition of insulin. Basal uptake was initiated by addition of radioactive ^14C-2-deoxyglucose and after 10 minutes they were washed with cold PBS mixed with cold glucose. At the end, the cells were solubilized with 0.1% SDS and counted in a Beckman scintillation counter.

[2] = test system: LPS-induced NO production; experiment: Inhibition of LPS-induced NO production in RAW 264.7 macrophages (Griess nitrite); assay type: cell-based, mouse; details: RAW 264.7, 30 μM, LPS 200 ng/mL + IFN-γ 10 U/mL, 18 hours
Experimental: Mouse macrophages (RAW 264.7) were plated in 6-well plate (2 million cells/well), and incubated at 37° C. with LPS (200 ng/mL+IFN-γ 10 U/mL) for 18 hours. Nitrite levels were measured by the Griess reagent. All of the compounds were tested at 30 μM concentrations.

[3] = test system: 3T3-L1 fibroblasts; experiment: Adipogenesis in 3T3-L1 fibroblasts (Oil-red-O staining); assay type: cell-based; details: stained on day 11, rosiglitazone 10 μM positive control
Experimental: All known PPAR-γ agonists (both TZD or non-TZDs) induce differentiation in the fibroblast cells. The adipogenic potential of these compounds are correlated with their affinity to this receptor. Referring to FIG. 3, to check whether the Compounds 1 and 2 have any affinity to these receptors, 3T3-L1 fibroblasts were treated with either DMSO control or rosiglitazone (all at 10 μM concentrations) as positive control or these two compounds for several days at different concentrations. On day 11th, the differentiated adipocytes were stained with Oil-red-O (Sigma) and washed thoroughly to remove the unbound stain. The stained differentiated adipocytes were visualized under high-resolution microscope.

[4] = test system: TNFα; experiment: TNFα inhibition in LPS-challenged human PBMC (ELISA); assay type: cell-based; details: 10 μM, LPS 100 ng/mL for 20 hours
Experimental: Referring to FIG. 7, human PBMC cells were cultured and incubated with Compound 1 and 2 at 10 μM concentration. Cells (1×10^6/mL) were challenged with lipopolysaccharides (LPS) at a concentration of (100 ng/mL) for 20 hours. TNF was measured by ELISA.

[5] = test system: human liver cells (HepG2); experiment: Cytotoxicity in HepG2 cells (MTS viability); details: 24 hours, up to 100 μM
Experimental: To find the cytotoxic effect of this class of new thiazolidinedione compounds (TZD), they were incubated in HepG2 cells for 24 hours and then the viability was measured by colorimetric reactions with MTS.

[6] = test system: db/db mice; experiment: Serum cholesterol in db/db mice; assay type: in vivo; details: 50 mg/kg once daily for 14 days
Experimental: Referring to FIG. 6, db/db mice (6-8 weeks old) were treated with Compound 2 (50 mg/kg) once daily for 14 days. At the end of the study serum cholesterol was measured by a calorimetric method.

[7] = test system: db/db mice; experiment: Oral glucose tolerance in db/db mice; assay type: in vivo; details: 50 mg/kg once daily for 14 days, oral glucose challenge 2 g/kg BW
Experimental: Referring to FIG. 5, db/db mice (6-8 weeks old) were treated with Compound 2 (50 mg/kg) once daily for 14 days. On day 14 the animals were fasted overnight and gavaged with Compound 2, one hour prior to oral glucose challenge (2 g/kg BW).

[8] = test system: db/db (spontaneous model) diabetic mice; experiment: Blood glucose lowering in db/db diabetic mice; assay type: in vivo; details: oral, 50 mg/kg body weight, daily
Experimental: Referring to FIG. 4, ten week old male db/db (spontaneous model) diabetic mice were orally treated with compound 1 at a dose of 50 mg/kg body weight and blood glucose was monitored by one touch glucometer every day morning before the next dose.

## O=C(O)Cc1ccc(Oc2ccc(CC3SC(=O)NC3=O)cc2)cc1 (stereo not drawn) [Compound 1, {4-[4-(2,4-Dioxothiazolidin-5-ylmethyl)phenoxy]-phenyl}acetic acid]
[1]
  basal glucose uptake: induced glucose uptake over basal levels
[2]
  inhibition of LPS-induced NO production (nitrite concentration): inhibition of LPS-induced NO production
[3]
  adipogenesis (differentiation of fibroblasts, Oil-red-O): non-adipogenic
[4]
  inhibition of pro-inflammatory cytokines (TNF by ELISA): inhibit major pro-inflammatory cytokines
[5]
  cytotoxicity (viability by MTS): did not show any toxicity
[6]
  serum cholesterol: serum cholesterol lowering effect

## {4-[4-(2,4-Dioxo-thiazolidin-5-ylmethyl)-phenoxy]-phenyl}-acetic acid disodium salt [Compound 2]
[1]
  basal glucose uptake: induced glucose uptake over basal levels
[2]
  inhibition of LPS-induced NO production (nitrite concentration): inhibition of LPS-induced NO production
[3]
  adipogenesis (differentiation of fibroblasts, Oil-red-O): non-adipogenic
[7]
  glucose tolerance: improvement in glucose tolerance
[4]
  inhibition of pro-inflammatory cytokines (TNF by ELISA): inhibit major pro-inflammatory cytokines
[8]
  blood glucose: blood glucose lowering effect
